Reference: the supplement of paper PMC6045584
± gives the standard deviation of the averaged measurements.

Tests used:
MLN-4924 = compound: NS(=O)(=O)OC[C@@H]1C[C@@H](n2ccc3c(N[C@H]4CCc5ccccc54)ncnc32)C[C@@H]1O [MLN-4924]; experiment: surviving fraction relative to DMSO-only wells; higher = less growth inhibition; conditions: exposure time: 5 days
Method in brief: (§1)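 Luminescence normalised to the median of DMSO-only wells defines surviving fraction, with viability read by CellTiter-Glo. Signal was recorded after 10 minutes at room temperature, once log-phase tumour cell lines seeded at 250–500 cells per well in 384-well plates had spent 24 hours settling and then five days under continuous exposure to inhibitors at 0.5, 1, 5, 10, 50, 100, 500 and 1000 nM.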

FORETINIB = compound: COc1cc2c(Oc3ccc(NC(=O)C4(C(=O)Nc5ccc(F)cc5)CC4)cc3F)ccnc2cc1OCCCN1CCOCC1 [FORETINIB]; experiment: as above; conditions: exposure time: 5 days
Method in brief: as §1

Row | Test System | surviving fraction (MLN-4924; 0.5 nM) | surviving fraction (MLN-4924; 1 nM) | surviving fraction (MLN-4924; 5 nM) | surviving fraction (MLN-4924; 10 nM) | surviving fraction (MLN-4924; 50 nM) | surviving fraction (MLN-4924; 100 nM) | surviving fraction (MLN-4924; 500 nM) | surviving fraction (MLN-4924; 1000 nM) | surviving fraction (FORETINIB; 0.5 nM) | surviving fraction (FORETINIB; 1 nM) | surviving fraction (FORETINIB; 5 nM) | surviving fraction (FORETINIB; 10 nM) | surviving fraction (FORETINIB; 50 nM) | surviving fraction (FORETINIB; 100 nM) | surviving fraction (FORETINIB; 500 nM) | surviving fraction (FORETINIB; 1000 nM)
1 | OSHN BONE | 1.09 ± 0.016 | 1.079 ± 0.01 | 1.15 ± 0.026 | 1.087 ± 0.0023 | 0.733 ± 0.018 | 0.565 ± 0.045 | 0.274 ± 0.028 | 0.258 ± 0.054 | 1.08 ± 0.05 | 1.07 ± 0.031 | 1.08 ± 0.018 | 1.05 ± 0.041 | 1.03 ± 0.035 | 1.01 ± 0.039 | 0.735 ± 0.057 | 0.0927 ± 0.013
2 | SCC47 HEADNECK | 1.12 ± 0.028 | 1.1 ± 0.11 | 1.06 ± 0.016 | 1.07 ± 0.022 | 0.717 ± 0.053 | 0.51 ± 0.05 | 0.307 ± 0.025 | 0.263 ± 0.024 | 1.17 ± 0.042 | 1.2 ± 0.09 | 1.18 ± 0.029 | 1.19 ± 0.06 | 1.12 ± 0.014 | 1.02 ± 0.035 | 0.97 ± 0.047 | 0.51 ± 0.024
3 | CAL72 BONE | 1.02 ± 0.11 | 0.996 ± 0.12 | 1.02 ± 0.1 | 1.04 ± 0.068 | 1.1 ± 0.031 | 0.933 ± 0.085 | 0.299 ± 0.063 | 0.154 ± 0.042 | 1.1 ± 0.12 | 1.08 ± 0.12 | 1.13 ± 0.016 | 1.11 ± 0.12 | 1.17 ± 0.069 | 1.13 ± 0.041 | 0.655 ± 0.13 | 0.326 ± 0.088
4 | 93VU HEADNECK | 1.01 ± 0.083 | 1.11 ± 0.068 | 1.09 ± 0.047 | 1.1 ± 0.051 | 0.828 ± 0.079 | 0.533 ± 0.034 | 0.166 ± 0.015 | 0.133 ± 0.0059 | 1.21 ± 0.1 | 1.21 ± 0.048 | 1.2 ± 0.13 | 1.07 ± 0.039 | 1.04 ± 0.024 | 1.04 ± 0.025 | 0.849 ± 0.13 | 0.224 ± 0.076
5 | HCC78 LUNG | 0.845 ± 0.11 | 0.588 ± 0.064 | 0.722 ± 0.17 | 0.808 ± 0.15 | 0.487 ± 0.067 | 0.27 ± 0.1 | 0.0393 ± 0.011 | 0.0343 ± 0.0078 | 0.779 ± 0.1 | 0.92 ± 0.14 | 0.89 ± 0.12 | 0.752 ± 0.091 | 0.257 ± 0.06 | 0.259 ± 0.039 | 0.179 ± 0.025 | 0.0403 ± 0.0068
6 | SUM159 BREAST | 1.11 ± 0.039 | 1.07 ± 0.043 | 1.08 ± 0.023 | 1.07 ± 0.017 | 1.05 ± 0.018 | 1.01 ± 0.012 | 0.75 ± 0.022 | 0.433 ± 0.02 | 1.13 ± 0.038 | 1.12 ± 0.046 | 1.11 ± 0.038 | 1.09 ± 0.028 | 1.071 ± 0.0061 | 1.06 ± 0.018 | 1.01 ± 0.018 | 0.566 ± 0.037
7 | U2OS BONE | 1.028 ± 0.0045 | 1.01 ± 0.015 | 0.988 ± 0.04 | 1.03 ± 0.049 | 1.04 ± 0.036 | 0.859 ± 0.022 | 0.403 ± 0.028 | 0.176 ± 0.015 | 1.03 ± 0.018 | 1 ± 0.021 | 1.04 ± 0.034 | 1.01 ± 0.037 | 1.03 ± 0.059 | 0.958 ± 0.03 | 0.558 ± 0.028 | 0.344 ± 0.024
8 | MDAMB231 BREAST | 0.9815 ± 0.006 | 0.978 ± 0.026 | 0.971 ± 0.025 | 0.933 ± 0.024 | 0.676 ± 0.0082 | 0.62 ± 0.035 | 0.243 ± 0.0094 | 0.175 ± 0.0081 | 0.974 ± 0.018 | 0.985 ± 0.013 | 0.998 ± 0.017 | 1 ± 0.03 | 0.971 ± 0.0077 | 0.9367 ± 0.0039 | 0.489 ± 0.0095 | 0.449 ± 0.0084
9 | CME SYNOVIAL | 1.19 ± 0.11 | 1.25 ± 0.15 | 1.32 ± 0.19 | 1.27 ± 0.07 | 0.692 ± 0.1 | 0.271 ± 0.026 | 0.273 ± 0.019 | 0.304 ± 0.023 | 1.39 ± 0.037 | 1.39 ± 0.12 | 1.41 ± 0.074 | 1.28 ± 0.14 | 1.27 ± 0.08 | 1.18 ± 0.12 | 0.887 ± 0.1 | 0.285 ± 0.048
10 | T47D BREAST | 1.04 ± 0.012 | 1.02 ± 0.021 | 0.916 ± 0.036 | 0.835 ± 0.037 | 0.67 ± 0.023 | 0.694 ± 0.011 | 0.279 ± 0.019 | 0.27 ± 0.028 | 1.02 ± 0.032 | 1.08 ± 0.056 | 1.08 ± 0.023 | 1.08 ± 0.029 | 1.04 ± 0.025 | 1.08 ± 0.04 | 0.897 ± 0.064 | 0.898 ± 0.028
11 | MDAMB436 BREAST | 0.946 ± 0.13 | 0.962 ± 0.082 | 0.961 ± 0.097 | 0.952 ± 0.13 | 0.555 ± 0.053 | 0.427 ± 0.037 | 0.272 ± 0.025 | 0.256 ± 0.016 | 0.976 ± 0.091 | 0.923 ± 0.086 | 0.982 ± 0.043 | 1.05 ± 0.14 | 1.02 ± 0.043 | 0.91 ± 0.2 | 0.856 ± 0.16 | 0.687 ± 0.047
12 | DU4475 BREAST | 0.976 ± 0.098 | 1.02 ± 0.028 | 0.894 ± 0.049 | 0.683 ± 0.11 | 0.033 ± 0.001 | 0.0267 ± 0.0042 | 0.0323 ± 0.0011 | 0.0333 ± 0.0011 | 0.942 ± 0.16 | 1.03 ± 0.019 | 0.931 ± 0.066 | 0.971 ± 0.19 | 0.979 ± 0.11 | 0.821 ± 0.13 | 0.715 ± 0.031 | 0.644 ± 0.043
13 | HOS BONE | 1.04 ± 0.026 | 1.02 ± 0.014 | 1.01 ± 0.042 | 0.949 ± 0.027 | 0.574 ± 0.033 | 0.337 ± 0.013 | 0.0287 ± 0.0011 | 0.0287 ± 0.0021 | 1.014 ± 0.0075 | 1.01 ± 0.012 | 1.057 ± 0.0045 | 1.01 ± 0.022 | 1.02 ± 0.075 | 1.02 ± 0.036 | 0.55 ± 0.024 | 0.451 ± 0.013
14 | OS25HAL BONE | 1.05 ± 0.029 | 1.05 ± 0.017 | 1.11 ± 0.034 | 0.982 ± 0.02 | 0.773 ± 0.041 | 0.533 ± 0.06 | 0.181 ± 0.01 | 0.102 ± 0.016 | 1.01 ± 0.045 | 1.04 ± 0.032 | 1.08 ± 0.0095 | 1 ± 0.018 | 0.924 ± 0.023 | 0.951 ± 0.031 | 0.375 ± 0.038 | 0.193 ± 0.0084
15 | CAL120 BREAST | 0.961 ± 0.064 | 0.963 ± 0.028 | 0.952 ± 0.06 | 0.889 ± 0.068 | 0.667 ± 0.057 | 0.482 ± 0.036 | 0.14 ± 0.0021 | 0.121 ± 0.0033 | 0.95 ± 0.035 | 1.01 ± 0.033 | 0.997 ± 0.026 | 0.993 ± 0.042 | 0.997 ± 0.069 | 0.97 ± 0.014 | 0.683 ± 0.03 | 0.562 ± 0.016
